We go through 39 compounds from patent US20080045535A1, “Prokineticin 2 receptor antagonists” (priority 2005, published 2008).

pIC50: −log10 of the molar value. Several values for one entry are separate records, joined by “and”; a condition that tells them apart may be missing. Equal entries are not always repeated. Where only a bound is given, the exact number is not on record here.

The target of the assay is T1, HEK 293 GPR73 (prokineticin 1 receptor) expressing cells (Homo sapiens, UniProt Q8TCW9).
T1 construct: expressed in transfected cells; host or cells: HEK 293
Description: PK1 functional assay: screening for PK1 antagonists on the FLIPR (calcium fluorescence). The class given is cell-based. The settings on record: HEK 293 GPR73 cells; for inhibition at 10 µM: HEK293, compound at 10 μM, read-out: Ca^2+ Mobilization % Inh @10 μM; for inhibition at 10 µM / Ca^2+ Mobilization % Inh @10 μM: multiple values = repeat tests; for pIC50: PK1 ligand at EC50, multiple values = repeat tests, read-out: Ca^2+ Mobilization IC50; for Ca^2+ Mobilization % Inh @10 μM: compound at 10 μM. As to the method: At a time of 24 h prior to running the assay, in cell culture media (DMEM containing high Glucose and L-glutamine, 10% FBS, 1% Pen/Streptomycin, 1% Sodium Pyruvate, 20 mM HEPES, Zeocin 200 mg/L), 100 μL of 1.3*10^6/ml HEK 293 GPR73 (prokineticin 1 receptor) expressing cells were plated in a 96 well poly-d-lysine coated plate (Costar), and incubated at 37 C and 5% CO2. On the day in which the assay was run, the media was removed and 200 μL of 5× Calcium Plus Dye (Molecular Devices) which was previously resuspended with 200 mL of assay buffer [HBSS w/Ca^2+ and Mg^2+ w/o phenol red, 20 mM HEPES, 0.1% BSA, 10 mL probenecid (710 mg probenecid in 5 mL of 1N NaOH, to which was then added 5 mL HBSS containing 20 mM HEPES)] was added to each well of the 96-well plate. The plate was incubated at 37 C and 5% CO2 for 30 min in dark. The plate was removed and allowed to reach RT for 15 min in the dark. The assay was then run on the FLIPR. […] Baseline is described as the amount of relative fluorescence read when buffer alone is added to cells. Baseline was subtracted from all wells. Percent of control was calculated as follows:
(Baseline subtracted well value is divided by baseline subtracted max value)*100.
Percent inhibition is 100 minus the percent of control value.
IC50 values were calculated using GraphPad Prism.
Table 2 includes data generated from the PK1 functional assay described in Example 2.

T1 sequence (Q8TCW9 whole entry): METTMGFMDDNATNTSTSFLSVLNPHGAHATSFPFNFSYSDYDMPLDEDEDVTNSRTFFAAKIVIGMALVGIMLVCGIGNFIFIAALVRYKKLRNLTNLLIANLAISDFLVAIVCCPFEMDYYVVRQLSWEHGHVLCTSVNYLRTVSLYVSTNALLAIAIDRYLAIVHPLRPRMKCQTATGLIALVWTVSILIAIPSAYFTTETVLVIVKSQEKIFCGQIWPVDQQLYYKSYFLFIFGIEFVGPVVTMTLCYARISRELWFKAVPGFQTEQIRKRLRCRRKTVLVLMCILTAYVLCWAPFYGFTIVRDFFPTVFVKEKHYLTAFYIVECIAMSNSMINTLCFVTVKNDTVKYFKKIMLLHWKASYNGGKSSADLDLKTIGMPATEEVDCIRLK

Take `COc1ccc(Cn2c(NCCNC(=N)N)nc(=O)n(Cc3ccoc3)c2=O)cc1` [Cpd 77]: the inhibition at 10 µM came out at 81% and the pIC50 is 6.10.
In the case of `COc1ccc(Cn2c(NCCNC(=N)N)nc(=O)n(Cc3cccs3)c2=O)cc1` [Cpd 78], the inhibition at 10 µM is 89% and the pIC50 was 6.52.
Turning to `COc1ccc(Cn2c(NCCNC(=N)N)nc(=O)n(C(C)c3ccc(OC)cc3)c2=O)cc1` (stereo not shown) [Cpd 79], the inhibition at 10 µM was 101% and the pIC50 was 7.15.
`COc1ccc(Cn2c(NCCNC(=N)N)nc(=O)n(Cc3ccc(OC(F)F)cc3)c2=O)cc1` [Cpd 80]: the inhibition at 10 µM was 100% and the pIC50 is 7.15.
Regarding `COc1ccc(Cn2c(NCCNC(=N)N)cc(=O)n(Cc3ccccc3)c2=O)cc1` [Cpd 81, N-{2-[1-Benzyl-3-(4-methoxy-benzyl)-2,6-dioxo-1,2,3,6-tetrahydro-pyrimidin-4-ylamino]-ethyl}-guanidine], the inhibition at 10 µM was 84% and the pIC50 was 6.34.
Taken in the same sequence, the figures for `C=CCC(c1ccc(OC)cc1)n1c(=O)nc(NCCNC(=N)N)n(Cc2ccc(OC)cc2)c1=O` (stereo not shown) [Cpd 82] were 84% and 6.30.
On to `C=CCC(c1ccc(Cl)cc1)n1c(=O)nc(NCCNC(=N)N)n(Cc2ccc(OC)cc2)c1=O` (stereo not shown) [Cpd 83], for which the inhibition at 10 µM is 80% and the pIC50 is 6.01.
For `COc1ccc(Cn2c(NCCNC(=N)N)cc(=O)n(Cc3ccc(OC)cc3)c2=O)cc1` [Cpd 84, N-{2-[1,3-Bis-(4-methoxy-benzyl)-2,6-dioxo-1,2,3,6-tetrahydro-pyrimidin-4-ylamino]-ethyl}-guanidine], the inhibition at 10 µM stood at 99% and the pIC50 is 7.38.
Taken in the same sequence, the figures for `COc1ccc(Cn2c(=O)nc(NCCNC(=N)N)n(Cc3ccc(OC)nc3)c2=O)cc1` [Cpd 85] were 96% and 7.29.
Turning to `COc1ccc(Cn2c(=O)nc(NCCNC(=N)N)n(CC3CCC(OC)CC3)c2=O)cc1` (stereo not shown) [Cpd 86], the inhibition at 10 µM is 61% and the pIC50 is 5.49.
For `N=C(N)NCCNc1nc(=O)n(Cc2ccc(F)cc2)c(=O)n1Cc1ccc([N+](=O)[O-])cc1` [Cpd 87], the inhibition at 10 µM was 38% and the pIC50 is less than 5.00.
Take `COc1ccc(Cn2c(NCCNC(=N)NCCN3CCOCC3)nc(=O)n(Cc3ccc(F)cc3)c2=O)cc1` [Cpd 88]: the inhibition at 10 µM worked out at 59% and the pIC50 was 5.32.
Consider `COc1ccc(Cn2c(NCCNC(=N)NCCCN3CCOCC3)nc(=O)n(Cc3ccc(F)cc3)c2=O)cc1` [Cpd 89], for which the inhibition at 10 µM was found to be 46% and the pIC50 is 5.04.
As for `COc1ccc(Cn2c(NCCN(C(=N)N)c3ccc(C#N)cc3)nc(=O)n(Cc3ccc(F)cc3)c2=O)cc1` [Cpd 90, N-(4-Cyano-phenyl)-N-{2-[5-(4-fluoro-benzyl)-1-(4-methoxy-benzyl)-4,6-dioxo-1,4,5,6-tetrahydro-[1,3,5]triazin-2-ylamino]-ethyl}-guanidine], the pIC50 is 7.51 and 7.37. Further, under “10 µM”, the “Ca^2+ Mobilization % Inh @10 μM” value was 100% and 101%.
Regarding `COc1ccc(Cn2c(NCCNC(=N)Nc3ccc([N+](=O)[O-])cc3)nc(=O)n(Cc3ccc(F)cc3)c2=O)cc1` [Cpd 91], the inhibition at 10 µM was 101% and the pIC50 was 7.27.
The corresponding values for `COc1ccc(Cn2c(NCCNC(=N)Nc3ccc4c(c3)OCO4)nc(=O)n(Cc3ccc(F)cc3)c2=O)cc1` [Cpd 92] are 97% and 7.40.
For the compound `COc1ccc(Cn2c(NCCNC(=N)NN)nc(=O)n(Cc3ccc(F)cc3)c2=O)cc1` [Cpd 93, N-{2-[5-(4-Fluoro-benzyl)-1-(4-methoxy-benzyl)-4,6-dioxo-1,4,5,6-tetrahydro-[1,3,5]triazin-2-ylamino]-ethyl}-AN-amino-guanidine], the inhibition at 10 µM is 92% and the pIC50 is 6.64.
In the case of `COc1ccc(Cn2c(NCCNC(=N)N)nc(=O)n(Cc3cccc([N+](=O)[O-])c3)c2=O)cc1` [Cpd 94], the inhibition at 10 µM was 60% and the pIC50 was 5.32.
Taken in the same sequence, the figures for `COc1ccc(Cn2c(NCCNC(=N)N)nc(=O)n(Cc3ccc([N+](=O)[O-])cc3)c2=O)cc1` [Cpd 95, N-{2-[1-(4-Methoxy-benzyl)-5-(4-nitro-benzyl)-4,6-dioxo-1,4,5,6-tetrahydro-[1,3,5]triazin-2-ylamino]-ethyl}-guanidine] were 96% and 7.08.
Consider `COc1ccc(Cn2c(NCCNC(=N)N)nc(=O)n(Cc3cccc(N)c3)c2=O)cc1` [Cpd 96], for which the inhibition at 10 µM was 43% and the pIC50 is less than 5.00.
As to `COc1ccc(Cn2c(NCCNC(=N)N)nc(=O)n(Cc3ccc(C#N)cc3)c2=O)cc1` [Cpd 97], the inhibition at 10 µM was 86% and the negative-log IC50 (pIC50) is 6.50.
As to `COc1ccc(Cn2c(NCCNC(=N)N)nc(=O)n(Cc3cccc(C#N)c3)c2=O)cc1` [Cpd 98], the inhibition at 10 µM worked out at 34% and the pIC50 is less than 5.00.
For `[H]/N=C(\N)NCCNc1nc(=O)n(Cc2ccc(C(=O)OC)cc2)c(=O)n1Cc1ccc(OC)cc1` [Cpd 99], the inhibition at 10 µM worked out at 73% and the pIC50 is 6.10.
Taken in the same sequence, the figures for `COC(=O)c1cccc(Cn2c(=O)nc(NCCNC(=N)N)n(Cc3ccc(OC)cc3)c2=O)c1` [Cpd 100] were 48% and 5.05.
On to `COc1ccc(Cn2c(NCCNC(=N)N)nc(=O)n(Cc3ccc(C(=O)O)cc3)c2=O)cc1` [Cpd 101, 4-[4-(2-Guanidino-ethylamino)-3-(4-methoxy-benzyl)-2,6-dioxo-3,6-dihydro-2H-[1,3,5]triazin-1-ylmethyl]-benzoic acid], for which the inhibition at 10 µM came out at 33% and the pIC50 was less than 5.00.
The corresponding values for `COc1ccc(Cn2c(NCC(C)(C)NC(=N)N)nc(=O)n(Cc3ccc(Cl)c(Cl)c3)c2=O)cc1` [Cpd 102] are 68% and 5.46.
`COc1ccc(Cn2c(NCCNC(=N)Nc3ccc(Br)cc3)nc(=O)n(Cc3ccc(F)cc3)c2=O)cc1` [Cpd 103]: the inhibition at 10 µM worked out at 99% and the negative-log IC50 (pIC50) is 7.64.
Regarding `COc1ccc(Cn2c(NCCN(C(=N)N)c3ccccn3)nc(=O)n(Cc3ccc(F)cc3)c2=O)cc1` [Cpd 104, N-{2-[5-(4-Fluoro-benzyl)-1-(4-methoxy-benzyl)-4,6-dioxo-1,4,5,6-tetrahydro-[1,3,5]triazin-2-ylamino]-ethyl}-N-pyridin-2-yl-guanidine], the pIC50 is 7.96. For the same compound, where the note is “10 µM”, the “Ca^2+ Mobilization % Inh @10 μM” value is 99% and 102%.
As for `COc1ccc(Cn2c(NCCNC(=N)NCCc3ccccn3)nc(=O)n(Cc3ccc(F)cc3)c2=O)cc1` [Cpd 105], the negative-log IC50 (pIC50) is 7.05 and the “Ca^2+ Mobilization % Inh @10 μM” value is 100%.
Regarding `CCOC(=O)c1ccc(NC(=N)NCCNc2nc(=O)n(Cc3ccc(F)cc3)c(=O)n2Cc2ccc(OC)cc2)cc1` [Cpd 106], the inhibition at 10 µM stood at 89% and the pIC50 was 6.29.
On to `COc1ccc(Cn2c(NCCNC(=N)Nc3ccc(F)cc3F)nc(=O)n(Cc3ccc(F)cc3)c2=O)cc1` [Cpd 107], for which the inhibition at 10 µM is 101% and the pIC50 was 7.92.
Consider `CCCCCCCCCCNC(=N)NCCNc1nc(=O)n(Cc2ccc(F)cc2)c(=O)n1Cc1ccc(OC)cc1` [Cpd 108], for which the inhibition at 10 µM was 89% and the pIC50 was 6.43.
As for `COc1ccc(Cn2c(NCCNC(=N)N)nc(=O)n(Cc3ccc(OC(C)(C)C)cc3)c2=O)cc1` [Cpd 109], the pIC50 is 6.89 and the “Ca^2+ Mobilization % Inh @10 μM” value came out at 99%.
In the case of `COc1ccc(Cn2c(NCCNC(=N)N)nc(=O)n(Cc3ccc(O)cc3)c2=O)cc1` [Cpd 110, N-{2-[5-(4-Hydroxy-benzyl)-1-(4-methoxy-benzyl)-4,6-dioxo-1,4,5,6-tetrahydro-[1,3,5]triazin-2-ylamino]-ethyl}-guanidine], the inhibition at 10 µM came to 81% and the pIC50 was 5.94.
In the case of `COc1ccc(Cn2c(NCCNC(=N)N)nc(=O)n(Cc3csc(Cl)n3)c2=O)cc1` [Cpd 111], the inhibition at 10 µM is 100% and the pIC50 is 6.81.
Turning to `COc1ccc(Cn2c(NCCNC(=N)N)nc(=O)n(Cc3cc4ccccc4o3)c2=O)cc1` [Cpd 112], the inhibition at 10 µM was found to be 101% and the pIC50 was 7.59.
`COc1ccc(Cn2c(NCCN(C)C(=N)N)nc(=O)n(Cc3ccc(Cl)c(Cl)c3)c2=O)cc1` [Cpd 113]: the inhibition at 10 µM came out at 101%; the pIC50 is 7.96 and 7.62 and 7.34 and 7.12. Besides, the “Ca^2+ Mobilization % Inh @10 μM” value (10 µM) was 100% and 102%.
On to `COc1ccc(Cn2c(NCCNC(=N)NCC(F)(F)F)nc(=O)n(Cc3ccc(F)cc3)c2=O)cc1` [Cpd 114], for which the inhibition at 10 µM is 99% and the pIC50 is 7.39.
As for `COCCCNC(=N)NCCNc1nc(=O)n(Cc2ccc(F)cc2)c(=O)n1Cc1ccc(OC)cc1` [Cpd 115], the inhibition at 10 µM turned out to be 99% and the negative-log IC50 (pIC50) is 7.33.
